Type in all cases: cell-based
The subject of test [1] is EOC 13.31 microglial cells. The test can be described thus: NO release inhibition screen in LPS/IFNγ stimulated microglia, Griess reaction at 48 hours (Example 7). The note with it: for μM NO release Avg / % inhibition / inhibition at 50 µM: 50 uM + 10 μg/ml LPS/10 ng/ml IFNγ, 48 hours; for % inhibition: 50 µM; for inhibition at 50 µM: Microglia, 48 h. The procedure:
In this experiment, additional bis- and tris-dihydroxyaryl compounds were screened for their ability to inhibit nitric oxide release from microglial cells. Microglial cells stimulated with LPS/IFNγ release nitric oxide. […] This is a continuation of screening experiments. EOC 13.31 microglial cells were plated into 96 well plates. At 24 hours and at confluency, cells were treated with 10 μg/ml LPS/10 ng/ml IFNγ+50 uM bis- and tris-dihydroxyaryl compounds.

Test [2] has as its system EOC 13.31 microglia cells. The test can be described thus: Inhibition of NO release from microglia following 24 hours pretreatment (Example 10). The settings on record: for inhibition at 50 µM: Microglia. The method, then: This experiment was designed to determine if pretreatment for 24 hours with bis- and tris-dihydroxyaryl compounds changes NO inhibition previously observed with concurrent exposure of bis- and tris-dihydroxyaryl compounds. […] This study seeks to determine if pretreatment with bis- and tris-dihydroxyaryl compounds increases NO release inhibition. EOC 13.31 microglia cells were plated at 1×10^6 cells/ml in 96 well plates. After 48 hours, confluent cells were exposed to 50 μM compound (stock 10 mM in DMSO) prepared in fresh cell culture media. After 24 hours, 10 μg/ml LPS and 10 ng/ml IFNγ was added to wells directly without a media change. Cells were incubated for a further 48 hours and nitric oxide release was measured using the Griess Reaction.

The subject of test [3] is microglia. The test can be described thus: Ranking of NO release inhibition (Example 12). The settings on record: Microglia, ranking table. An excerpt:
The bis- and tris-dihydroxyaryl compounds were ranked in order of effectiveness for the inhibition of NO release as set out in Table 8.

The subject of test [4] is TNF-α release from microglia. The test is described as follows: TNF-α release from LPS/IFNγ stimulated microglia, TNF-α ELISA (Example 11). The settings on record: 50 uM compound, TNF-α release, 10 ug LPS and 10 ng IFNγ, 24 hours; for % inhibition: individual replicates, 50 µM; for inhibition at 50 µM: Microglia, 24 h, read-out: Avg % Inhibition. The procedure:
Also, bis- and tris-dihydroxyaryl compound's ability to inhibit NO release strongly supports their interference with the inflammatory cascade and utlimately inhibition of inflammation. Microglia cells were plated at 1×10^5 cells/ml into 96 well plates. At day three, they were treated with 50 μM bis- and tris-dihydroxyaryl compound for 1 hour and then exposed to 10 μg/ml LPS+10 ng/ml IFNγ for 24 hours. 10 μl of media was removed and stored at −80° until TNF-α ELISA assays were performed. Samples were diluted 1:50 before running the TNF-α ELISA (kit commercially available from Sigma).
(In an ELISA, binding on a coated surface is turned into a signal by an enzyme label.)

Setting [5] is: 50 uM pretreatment 24 hours, then LPS/IFNγ 48 hours, single replicates.
The mark [6] stands for this setting: 50 uM pretreatment 24 hours, then LPS/IFNγ 48 hours, read-out: Avg % Inhibition.
The mark [7] stands for this setting: 50 uM pretreatment 24 hours, then LPS/IFNγ 48 hours, single replicates, read-out: % inhibition.
The mark [8] stands for this setting: 50 μM pretreatment, read-out: inhibition of NO release following pretreatment.
The mark [9] stands for this setting: single replicates, read-out: % inhibition.

Each structure is given as a SMILES string. Where “and” joins values, the source holds several entries; their conditions need not be identical. Identical values can stand only once. Like-named read-outs stand apart in the source and are kept apart here.

Broadly, the % inhibition is the change of the read-out against control, counted positive when it falls. One may read the inhibition as the drop in the measured response relative to a control, in per cent. For the molecule `Oc1ccc(CN(Cc2ccc(O)c(O)c2)Cc2ccc(O)c(O)c2)cc1O` [Compound 75, tris(3,4-dihydroxybenzyl)amine], the “μM NO release Avg” value in test [1] was found to be 23.343 µM. The “% inhibition” value in test [1] (single replicates) was 24.54% and 12.06% and 10.97%; in test [2] (setting [5]) it was 60.46% and 56.98%; in test [4], 2.52% and −2.74% and 5.81%. Moreover, the inhibition at 50 µM was found to be 15.9% in test [1] (read-out: Avg. % Inhibition); 59.6% in test [2] (setting [6]); 61.4% in test [2] (setting [7]); 16% in test [3]; 1.86% in test [4].
As to `Oc1cc2ncc3cnc4cc(O)c(O)cc4c3c2cc1O` [Compound 85, dibenzo[c,f][2,7]napthyridine-2,3,10,11-tetraol], in test [1], the “μM NO release Avg” value came out at 23.445 µM. Besides, the “% inhibition” value was 24.54% and 12.660% and 9.33% in test [1] (single replicates); 97.27% and 94.23% in test [2] (setting [5]); −14.41% and −19.01% and −16.88% in test [4]. Besides, the inhibition at 50 µM in test [1] (read-out: Avg. % Inhibition) is 15.5%; in test [2] (setting [6]), 94.9%; in test [2] (setting [7]), 93.3%; in test [2] (setting [8]), over 75%; in test [3], 16%; in test [4], -16.8%.
Take `O=C(CCc1ccc(O)c(O)c1)NCc1ccc(O)c(O)c1` [Compound 58, 3-(3,4-dihydroxyphenyl)propionic acid 3,4-dihydroxybenzylamide]: in test [1], the “μM NO release Avg” value was 26.605 µM. Further, the “% inhibition” value is 9.89% and 2.05% and 0.37% in test [1] (single replicates); 77.86% and 69.95% in test [2] (setting [5]); −13.26% and −11.95% in test [4]. Moreover, the inhibition at 50 µM is 4.1% in test [1] (read-out: Avg. % Inhibition); 72.5% in test [2] (setting [6]); 69.6% in test [2] (setting [7]); 4% in test [3]; -12.6% in test [4].
Regarding `O=C(CCc1ccc(O)c(O)c1)Nc1ccc(O)c(O)c1` [Compound 57, 3-(3,4-dihydroxyphenyl)propionic acid 3,4-dihydroxyanilide], the “μM NO release Avg” value in test [1] was 23.756 µM. Also, the “% inhibition” value is 16.40% and 20.74% and 5.97% in test [1] (single replicates); −6.36% and −3.40% and −1.92% in test [4]. Also, the inhibition at 50 µM in test [1] (read-out: Avg. % Inhibition) is 14.4%; in test [2] (setting [6]), 100%; in test [2] (setting [7]) it was 100%; in test [2] (setting [8]), over 75%; in test [3] it was 14%; in test [4], -3.89%. Also, the “μM NO release” value in test [2] (setting [5]) was determined as 0.000 µM.
Take `O=C(Nc1ccc(O)c(O)c1)C(=O)Nc1ccc(O)c(O)c1` [Compound 63, oxalic acid bis(3,4-dihydroxyanilide)]: in test [1], the “μM NO release Avg” value stood at 23.193 µM. In addition, the “% inhibition” value in test [1] (single replicates) was 15.27%; in test [2] (setting [5]) it was 81.97%; in test [4], −11.29% and −7.18% and −9.97%. The inhibition at 50 µM in test [1] (read-out: Avg. % Inhibition) was 14.2%; in test [1] (setting [9]), 11.9%; in test [2] (setting [6]), 82.1%; in test [2] (setting [7]), 82.3%; in test [2] (setting [8]) it was over 75%; in test [3] it was 14%. The inhibition at 50 µM in test [4] is -9.48%.
`O=C(c1ccc(O)c(O)c1)C(O)c1ccc(O)c(O)c1` (stereo not shown) [Compound 1, 3,4,3′,4′-tetrahydroxybenzoin]: the “μM NO release Avg” value in test [1] worked out at 22.038 µM. The “% inhibition” value is 20.29% and 18.62% in test [1] (single replicates); −16.55% and −17.04% and −18.19% in test [4]. Moreover, the inhibition at 50 µM is 18.4% in test [1] (read-out: Avg. % Inhibition), 16.4% in test [1] (setting [9]), 18% in test [3] and -17.3% in test [4].
On to `Oc1ccc(CN[C@@H]2CCCC[C@H]2NCc2ccc(O)c(O)c2)cc1O` (relative stereo) [Compound 12, N,N′-bis(3,4-dihydroxybenzyl)-trans-1,2-diaminocyclohexane], for which the “μM NO release Avg” value in test [1] came out at 18.976 µM. Also, the “% inhibition” value in test [1] (single replicates) was 26.72% and 33.23%; in test [4] it was 15.81% and 25.24% and 10.54%. The “inhibition of NO release, in words” value in test [1] (50 uM, LPS/IFNγ stimulated microglia) is “effective inhibitors of NO release”. In addition, the inhibition at 50 µM in test [1] (read-out: Avg. % Inhibition) came out at 31.6%; in test [1] (setting [9]) it was 34.9%; in test [3] it was 32%; in test [4], 17.2%.

Values taken from patent publication US20070208087A1, “Compounds, compositions and methods for the treatment of inflammatory diseases” (priority 2001, published 2007).
